In US8685974B2 (Bayer CropScience AG, priority 2009, dated 2014):
Where two headings read alike, the source gives them in different places. Marks after values point to notes of the source that are not given here.

## Clc1ccc(-c2n[nH]c(C3CC3)c2-c2ccncc2)s1 [Example 67]
pH 2.7
  log p: 1.36^[b]

## CCC(C)n1cc(-c2ccnc(C#CC3CC3)c2)c(-c2ccc(Cl)s2)n1 (stereo not drawn) [Example 111]
pH 2.7
  log p: 4.56^[b]

## FC(F)Cn1cc(-c2ccncc2)c(-c2cc(Cl)cs2)n1 [Example 157]
pH 2.7
  log p: 1.42^[b]

## CC(CN(C)C)Cn1cc(-c2ccnc(Cl)c2)c(-c2ccc(Cl)s2)n1 (stereo not drawn) [Example 91]
pH 2.3
  log p: 1.84^[a]
  logP value of the minor isomer (in parenthesis in column Isomer ratio [d]): (1.74)

## C#CCNc1cc(-c2cnn(CC(C)C)c2-c2ccc(Cl)s2)cc[n+]1[O-] [Example 83]
pH 2.3
  log p: 2.7^[a]

## C=CCNc1nccc(-c2cn(C(C)C)nc2-c2ccc(Cl)s2)n1 [Example 184]
pH 2.3
  log p: 3^[a]

## C=CCn1cc(-c2ccncc2)c(-c2sccc2Cl)n1 [Example 136]
pH 2.7
  log p: 1.22^[b]
  logP value of the minor isomer: (1.28)

## 4-[3-(5-Chloro-2-thienyl)-1-isobutyl-1H-pyrazol-4-yl]-N-propylpyridin-2-amine 1-oxide
pH 2.7
  logP (pH2.7): 1.90

## CC(C)Nc1nccc(-c2cn(CCCl)nc2-c2ccc(Cl)s2)n1 [Example 119]
pH 2.7
  log p: 2.63^[b]
  logP value of the minor isomer (in parenthesis in column Isomer ratio [d]): (2.35)

## CC(C)Cn1cc(-c2ccnc(N(Cc3ccccc3)C(=O)C(C)C)n2)c(-c2ccc(Cl)s2)n1 [Example 94]
pH 2.3
  log p: 5.88^[a]

## CCCNc1cc(-c2c[nH]nc2-c2ccc(Cl)s2)cc[n+]1[O-] [Example 71]
pH 2.3
  log p: 1.9^[a]

## CC(=O)Nc1cc(-c2cn(C(C)C)nc2-c2ccc(Cl)s2)ccn1 [N-{4-[(3/5)-(5-Chloro-2-thienyl)-1-isopropyl-1H-pyrazol-4-yl]pyridin-2-yl}acetamide]
pH 2.7
  logP (pH2.7): 2.45
  logP (pH2.7), minor isomer: 2.22

## CC(C)Cn1ncc(-c2ccnc(NCc3ccccc3)n2)c1-c1ccc(Cl)s1 [Example 96]
pH 2.3
  log p: 3.96^[a]

## Cc1c(-c2ccncc2)c(-c2ccc(Cl)s2)nn1C [Example 147]
pH 2.7
  log p: 1.29^[b]
pH 7.8
  log p: 2.62^[c];

## CC(C)=CCn1cc(-c2ccncc2)c(-c2cc3ccsc3s2)n1 [Example 331]
pH 2.7
  log p: 1.69^[b]

## CCCNc1nccc(-c2c[nH]nc2-c2ccc(Cl)s2)n1 [Example 65]
pH 2.3
  log p: 1.75^[a]

## CC(n1ncc(-c2ccncc2)c1-c1ccc(Cl)s1)C(C)(C)C (stereo not drawn) [Example 19]
pH 2.7
  log p: 2.47^[b]

## Cn1cc(-c2ccncc2)c(-c2sccc2Cl)n1 [Example 142]
pH 2.7
  log p: 0.78^[b]
  logP value of the minor isomer: (0.88)

## CCC(C)n1cc(-c2ccncc2)c(-c2sccc2Cl)n1 (stereo not drawn) [Example 132]
pH 2.7
  log p: 1.56^[b]
  logP value of the minor isomer: (1.67)

## CC(C)Cn1ncc(-c2cc[n+]([O-])c(NCc3ccccc3)c2)c1-c1ccc(Cl)s1 [Example 75]
pH 2.3
  log p: 3.48^[a]

## CC(C)Nc1nccc(-c2cn(CC(F)F)nc2-c2ccc(Cl)s2)n1 [Example 162]
pH 2.7
  log p: 2.66^[b]

## CC(C)Nc1nccc(-c2cn(CC(F)(F)F)nc2-c2ccc(Cl)s2)n1 [Example 124]
pH 2.7
  log p: 3.11^[b]

## CC(C)Cn1cc(-c2ccncc2)c(-c2sccc2Cl)n1 [Example 159]
pH 2.7
  log p: 1.62^[b]

## CCC(C)n1cc(-c2ccnc(C(=O)NC(C)C)c2)c(-c2ccc(Cl)s2)n1 (stereo not drawn) [Example 99]
pH 2.7
  log p: 4.82^[b]

## C=CCn1cc(-c2ccnc(NC(C)C)n2)c(-c2ccc(Cl)s2)n1 [Example 155]
pH 2.7
  log p: 2.68^[b]

## C#CCNc1cc(-c2cn(CC(C)C)nc2-c2ccc(Cl)s2)ccn1 [Example 112]
pH 2.7
  log p: 2.30^[b]

## N#CCn1cc(-c2ccncc2)c(-c2sccc2Cl)n1 [Example 137]
pH 2.7
  log p: 0.93^[b]
  logP value of the minor isomer: (0.78

## C=CC(C)n1cc(-c2ccncc2)c(-c2sccc2Cl)n1 (stereo not drawn) [Example 161]
pH 2.7
  log p: 1.51^[b]

## CC(C)n1cc(-c2ccncc2)c(-c2ccc(C(F)(F)F)s2)n1 [4-[1-isopropyl-(3/5)-(5-trifluoromethyl-2-thienyl)-1H-pyrazol-4-yl]pyridine]
pH 2.7
  logP (pH2.7): 2.20
  logP (pH2.7), minor isomer: 2.08

## CC(C)CC(C)n1ncc(-c2ccncn2)c1-c1ccc(Cl)s1 (stereo not drawn) [Example 28]
pH 2.7
  log p: 4.29^[b]

## CC(C)Cn1cc(-c2cc[n+]([O-])c(NCc3ccccc3)c2)c(-c2ccc(Cl)s2)n1 [Example 73]
pH 2.3
  log p: 3.73^[a]

## N#Cc1[nH]nc(-c2ccc(Cl)s2)c1-c1ccncc1 [Example 85]
pH 2.7
  log p: 1.53^[b]

## CC(n1ncc(-c2ccncn2)c1-c1ccc(Cl)s1)C(C)(C)C (stereo not drawn) [Example 33]
pH 2.7
  log p: 4.46^[b]

## CC(C)Cn1cc(-c2cc[n+]([O-])c(NCc3ccccc3)c2)c(-c2ccc(Cl)s2)n1 [2-Benzylamino-4-[1-isobutyl-3-(5-chloro-2-thienyl)-1H-pyrazol-4-yl]pyridine N oxide]
pH 2.7
  logP (pH2.7): 3.65

## CN(C)c1nccc(-c2c[nH]nc2-c2ccc(Cl)s2)n1 [Example 79]
pH 2.3
  log p: 1.69^[a]

## CCn1cc(-c2ccnc(NS(=O)(=O)N(C)C)c2)c(-c2ccc(Cl)s2)n1 [Example 219]
pH 2.7
  log p: 2.59^[b]

## CC(C)=CCn1ncc(-c2ccncn2)c1-c1ccc(Cl)s1 [Example 29]
pH 2.7
  log p: 3.44^[b]

## Clc1ccc(-c2c(-c3ccncc3)cnn2-c2ccccc2)s1 [Example 23]
pH 2.7
  log p: 1.88^[b]

## C#CCn1cc(-c2ccncc2)c(-c2sccc2Cl)n1 [Example 131]
pH 2.7
  log p: 1.11^[b]
  logP value of the minor isomer: (1.10)

## Cn1cc(-c2ccnc(NC(=O)C(C)(C)C)c2)c(-c2ccc(Cl)s2)n1 [Example 283]
pH 2.7
  log p: 2.92^[b]

## C=CCn1cc(-c2ccncc2)c(-c2ccc(F)s2)n1 [Example 382]
pH 2.7
  log p: 1.54^[b]
  logP value of the minor isomer: (1.48)

## CCC(C)n1ncc(-c2ccnc(SC)n2)c1-c1ccc(Cl)s1 (stereo not drawn) [Example 209]
pH 2.3
  log p: 4.76^[a]

## CC#Cc1c(-c2ccncc2)c(-c2ccc(Cl)s2)nn1Cc1ccc(OC)cc1 [4-[(3/5)-(5-chloro-2-thienyl)-1-(4-methoxybenzyl)-5-(prop-1-yn-1-yl)-1H-pyrazol-4-yl]pyridine]
pH 2.7
  logP (pH2.7): 3.11
  logP (pH2.7), minor isomer: 2.61

## CC(C)n1cc(-c2ccnc(S(C)(=O)=O)n2)c(-c2ccc(Cl)s2)n1 [Example 203]
pH 2.3
  log p: 3.15^[a]

## CC(=O)c1ccc(-c2[nH]ncc2-c2ccncc2)s1 [Example 36]
pH 2.7
  log p: 0.62^[b]

## Clc1ccsc1-c1nn(CCc2ccccc2)cc1-c1ccncc1 [Example 128]
pH 2.7
  log p: 1.88^[b]
  logP value of the minor isomer: (1.84)

## Clc1ccc(-c2n[nH]c(Br)c2-c2ccncc2)s1 [Example 44]
pH 2.7
  log p: 1.4^[b]

## CC(C)Cn1cc(-c2cc[n+]([O-])c(N)c2)c(-c2ccc(Cl)s2)n1 [2-Amino-4-[1-isobutyl-3-(5-chloro-2-thienyl)-1H-pyrazol-4-yl]pyridine N oxide]
pH 2.7
  logP (pH2.7): 2.39

## CC(C)n1cc(-c2ccncc2)c(-c2cccs2)n1 [4-[1-Isopropyl-(3/5)-(2-thienyl)-1H-pyrazol-4-yl]pyridine]
pH 2.7
  logP (pH2.7): 1.27
  logP (pH2.7), minor isomer: 1.33

## CC(C)=CCn1cc(-c2ccncc2)c(-c2ccc(F)s2)n1 [Example 343]
pH 2.7
  log p: 1.45^[b]

## N#CCCn1cc(-c2ccncc2)c(-c2sccc2Cl)n1 [Example 143]
pH 2.7
  log p: 0.86^[b]

## CCC(C)n1cc(-c2ccnc(NC(=O)C(C)(C)C)c2)c(-c2ccc(Cl)s2)n1 (stereo not drawn) [Example 231]
pH 2.7
  log p: 4.35^[b]

## CC(C)Nc1nccc(-c2cn(CCc3ccccc3)nc2-c2ccc(Cl)s2)n1 [Example 153]
pH 2.7
  log p: 3.63^[b]

## CC(C)C(C)n1ncc(-c2ccncn2)c1-c1ccc(Cl)s1 (stereo not drawn) [Example 32]
pH 2.7
  log p: 3.8^[b]

## CCC(CC)n1ncc(-c2ccncc2)c1-c1ccc(Cl)s1 [Example 41]
pH 2.3
  log p: 2.08^[a]

## CC1(Cn2cc(-c3ccncc3)c(-c3cc4ccsc4s3)n2)CC1(Cl)Cl (stereo not drawn) [Example 326]
pH 2.7
  log p: 2.62^[b]
  logP value of the minor isomer (between parenthesis, Isomer ratio column): (2.46)

## FC(F)(F)Cn1cc(-c2ccncc2)c(-c2sccc2Cl)n1 [Example 138]
pH 2.7
  log p: 1.39^[b]

## N#CCn1cc(-c2ccncc2)c(-c2cc3ccsc3s2)n1 [Example 336]
pH 2.7
  log p: 1.48^[b]

## CCC(C)n1nc(-c2ccc(Cl)s2)c(-c2ccncc2)c1Br (stereo not drawn) [4-[5-Bromo-1-secbutyl-(3/5)-(5-chloro-2-thienyl)-1H-pyrazol-4-yl]pyridine]
pH 2.7
  logP (pH2.7): 3.69

## CC(C)Nc1nccc(-c2cn(C3CCCC3)nc2-c2ccc(Cl)s2)n1 [4-[(3/5)-(5-Chloro-2-thienyl)-1-cyclopentyl-1H-pyrazol-4-yl]-2-(isopropylamino)pyrimidine]
pH 2.7
  logP (pH2.7): 3.61
  logP (pH2.7), minor isomer: 3.33

## CC(C)Cn1ncc(-c2ccnc(Cl)c2)c1-c1ccc(Cl)s1 [Example 72]
pH 2.3
  log p: 4.65^[a]

## CCC(CC)n1cc(-c2ccncc2)c(-c2sccc2Cl)n1 [Example 130]
pH 2.7
  log p: 1.78^[b]
  logP value of the minor isomer: (1.88)

## CC#Cc1c(-c2ccncc2)c(-c2ccc(Cl)s2)nn1C(C)C [4-[(3/5)-(5-Chloro-2-thienyl)-1-isopropyl-5-(prop-1-yn-1-yl)-1H-pyrazol-4-yl]pyridine]
pH 2.7
  logP (pH2.7): 2.78
  logP (pH2.7), minor isomer: 2.21

## CC(C)=CCn1cc(-c2ccncc2)c(-c2ccc(Br)s2)n1 [Example 355]
pH 2.7
  log p: 2.35^[b]
  logP value of the minor isomer (between parenthesis, Isomer ratio column): (2.11)

## CC(C)n1cc(-c2ccnc(NCc3ccccc3)n2)c(-c2ccc(Cl)s2)n1 [Example 198]
pH 2.3
  log p: 3.81^[a]

## CCOCCn1cc(-c2ccncc2)c(-c2sccc2Cl)n1 [Example 135]
pH 2.7
  log p: 1.23^[b]

## CCC(C)n1cc(-c2ccnc(SC)n2)c(-c2ccc(Cl)s2)n1 (stereo not drawn) [Example 221]
pH 2.3
  log p: 4.88^[a]

## Clc1ccc(-c2nn(Cc3ccccc3)cc2-c2ccncc2)s1 [Example 43]
pH 2.3
  log p: 2.35^[a]

## CC(C)Nc1nccc(-c2cn(Cc3ccccc3F)nc2-c2ccc(Cl)s2)n1 [Example 121]
pH 2.7
  log p: 3.39^[b]
  logP value of the minor isomer (in parenthesis in column Isomer ratio [d]): (3.02

## CS(=O)(=O)n1cc(-c2ccncc2)c(-c2ccc(Cl)s2)n1 [Example 88]
pH 2.7
  log p: 1.78^[b]

## CCC(C)n1cc(-c2ccnc(NCc3ccccc3)n2)c(-c2ccc(Cl)s2)n1 (stereo not drawn) [Example 200]
pH 2.3
  log p: 4.27^[a]

## CSc1nccc(-c2cn(C(C)C)nc2-c2ccc(Cl)s2)n1 [Example 222]
pH 2.3
  log p: 4.44^[a]

## [O-][n+]1ccc(-c2c[nH]nc2-c2ccc(Cl)s2)cc1Cl [Example 59]
pH 7.8
  log p: 1.57^[c]
